# Measurements as given in ChEMBL document CHEMBL1201862, “PubChem BioAssay data set” (2004).
#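 Dose response: 5 concentrations. Exposure: 48 h. Format: 96-well plates. Endpoint: linear interpolation; highest concentration if not reached. Here, GI50 denotes the concentration required for 50% inhibition of growth.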 The source made the active and inactive calls. Cut-off read from the data, not from the text of the source: active = GI50 up to about 1.1 µM and inactive = higher.
# How the values were obtained:
# Experiment in all cases: NCI anticancer screen, dose series, 48 h
# HT-29 = test system: HT-29
# UO-31 = test system: UO-31
# HCT-116 = test system: HCT-116
# OVCAR-8 = test system: OVCAR-8
# HCC 2998 = test system: HCC 2998
# RXF 393 = test system: RXF 393
# SN12C = test system: SN12C
# BT-549 = test system: BT-549
# KM12 = test system: KM12
# SK-OV-3 = test system: SK-OV-3
# PC-3 = test system: PC-3
# UACC-257 = test system: UACC-257
# NCI-H23 = test system: NCI-H23
# A549 = test system: A549
# SK-MEL-28 = test system: SK-MEL-28
# CCRF-CEM = test system: CCRF-CEM
# MDA-MB-435 = test system: MDA-MB-435
# HL-60 = test system: HL-60
# NCI-H460 = test system: NCI-H460
# U-251 = test system: U-251
Compound,GI50 (HT-29),GI50 (UO-31),GI50 (HCT-116),GI50 (OVCAR-8),GI50 (HCC 2998),GI50 (RXF 393),GI50 (SN12C),GI50 (BT-549),GI50 (KM12),GI50 (SK-OV-3),GI50 (PC-3),GI50 (UACC-257),GI50 (NCI-H23),GI50 (A549),GI50 (SK-MEL-28),GI50 (CCRF-CEM),GI50 (MDA-MB-435),GI50 (HL-60),GI50 (NCI-H460),GI50 (U-251)
CN(C)CCNC(=O)c1cnn(C)c1[N+](=O)[O-],33.4 µM (inactive),> 100 µM (inactive),50.9 µM (inactive),> 100 µM (inactive),> 100 µM (inactive),65.6 µM (inactive),> 100 µM (inactive),> 100 µM (inactive),68.1 µM (inactive),> 100 µM (inactive),36.1 µM (inactive),53 µM (inactive),73.5 µM (inactive),> 100 µM (inactive),> 100 µM (inactive),> 100 µM (inactive),> 100 µM (inactive),35.2 µM (inactive),77.4 µM (inactive),> 100 µM (inactive)
COc1cccc2c1C(=O)C1=C(C2=O)C(O)CC(C)(C)O1 (stereo not given),37.7 µM (inactive),58.9 µM (inactive),24 µM (inactive),27.7 µM (inactive),33.6 µM (inactive),71 µM (inactive),32.5 µM (inactive),63.7 µM (inactive),27.9 µM (inactive),> 100 µM (inactive),25.5 µM (inactive),22.4 µM (inactive),28.5 µM (inactive),32.1 µM (inactive),> 100 µM (inactive),23.4 µM (inactive),20 µM (inactive),11.7 µM (inactive),42.9 µM (inactive),32.4 µM (inactive)
[N-]=[N+]=NCC1OC(n2cnc3c(N)ncnc32)C2OC12 (stereo not given),> 100 µM (inactive),> 100 µM (inactive),> 100 µM (inactive),> 100 µM (inactive),> 100 µM (inactive),> 100 µM (inactive),> 100 µM (inactive),> 100 µM (inactive),> 100 µM (inactive),> 100 µM (inactive),> 100 µM (inactive),> 100 µM (inactive),> 100 µM (inactive),> 100 µM (inactive),> 100 µM (inactive),> 100 µM (inactive),> 100 µM (inactive),> 100 µM (inactive),> 100 µM (inactive),> 100 µM (inactive)
Brc1ccc2c(-c3nc(-c4c[nH]c5ccccc45)cs3)c[nH]c2c1,38.6 µM (inactive),19.5 µM (inactive),23.8 µM (inactive),36.4 µM (inactive),24 µM (inactive),17.6 µM (inactive),42.9 µM (inactive),34.8 µM (inactive),10 µM (inactive),> 100 µM (inactive),30.8 µM (inactive),69.2 µM (inactive),24.9 µM (inactive),9.59 µM (inactive),> 27.8 µM (inactive),27.4 µM (inactive),34.6 µM (inactive),63 µM (inactive),11.8 µM (inactive),35.2 µM (inactive)
c1cnc2c(c1)ccc1cccnc12,4.55 µM (inactive),2.3 µM (inactive),3.78 µM (inactive),4.36 µM (inactive),6.7 µM (inactive),4.48 µM (inactive),3.27 µM (inactive),9.79 µM (inactive),4.93 µM (inactive),11.7 µM (inactive),> 27.1 µM (inactive),3.78 µM (inactive),5.12 µM (inactive),5.07 µM (inactive),4.95 µM (inactive),1.87 µM (inactive),5.21 µM (inactive),0.354 µM (active),2.74 µM (inactive),> 20.2 µM (inactive)
COc1cc(/C=C\c2nnc(/C=C\c3ccc(O)c(OC)c3)s2)ccc1O,7.31 µM (inactive),3.47 µM (inactive),2.36 µM (inactive),3.78 µM (inactive),3.48 µM (inactive),1.16 µM (inactive),4.31 µM (inactive),1.89 µM (inactive),2.2 µM (inactive),4.41 µM (inactive),3.94 µM (inactive),2.16 µM (inactive),2.45 µM (inactive),3.13 µM (inactive),5.35 µM (inactive),2.18 µM (inactive),0.495 µM (active),1.64 µM (inactive),3.09 µM (inactive),3.06 µM (inactive)
C=CCNC1=C2C[C@@H](C)C[C@@H](OC)[C@@H](OC(=O)CCCN)[C@H](C)/C=C(\C)[C@@H](OC(N)=O)[C@H](OC)/C=C\C=C(/C)C(=O)NC(=CC1=O)C2=O,5.37 µM (inactive),18.4 µM (inactive),15.7 µM (inactive),19.4 µM (inactive),15.5 µM (inactive),20 µM (inactive),17.4 µM (inactive),8.99 µM (inactive),4.14 µM (inactive),14.6 µM (inactive),14 µM (inactive),15.1 µM (inactive),13.9 µM (inactive),15.7 µM (inactive),16.3 µM (inactive),10.6 µM (inactive),20.3 µM (inactive),4.43 µM (inactive),14.9 µM (inactive),9.44 µM (inactive)
O=c1[nH]nc(Cc2ccccc2)n1/N=C/c1ccc([N+](=O)[O-])o1,1.68 µM (inactive),4.47 µM (inactive),2.06 µM (inactive),2.16 µM (inactive),3.99 µM (inactive),1.88 µM (inactive),3.31 µM (inactive),0.308 µM (active),2.15 µM (inactive),15.4 µM (inactive),3.15 µM (inactive),3.56 µM (inactive),3.57 µM (inactive),4.1 µM (inactive),2.2 µM (inactive),1.16 µM (inactive),1.57 µM (inactive),2.95 µM (inactive),3.46 µM (inactive),2.87 µM (inactive)
Cc1ccc(C2=CC(=O)OC(C[P+](c3ccccc3)(c3ccccc3)c3ccccc3)(c3ccccc3)O2)cc1 (stereo not given),14.7 µM (inactive),16.3 µM (inactive),14.5 µM (inactive),24.5 µM (inactive),22.4 µM (inactive),16.7 µM (inactive),27.2 µM (inactive),26.7 µM (inactive),17.7 µM (inactive),18.2 µM (inactive),23.1 µM (inactive),16.9 µM (inactive),13.6 µM (inactive),15.8 µM (inactive),19 µM (inactive),16.8 µM (inactive),16.2 µM (inactive),20.1 µM (inactive),17.8 µM (inactive),17.9 µM (inactive)
N/N=C(/C=C1\C(=O)Nc2ccccc21)c1ccccc1,19.9 µM (inactive),32.2 µM (inactive),15.3 µM (inactive),24 µM (inactive),20 µM (inactive),20 µM (inactive),26.3 µM (inactive),15.4 µM (inactive),11.1 µM (inactive),32.1 µM (inactive),20.3 µM (inactive),36.1 µM (inactive),30.1 µM (inactive),29.6 µM (inactive),26.7 µM (inactive),13.2 µM (inactive),4.15 µM (inactive),3.8 µM (inactive),28.6 µM (inactive),24.4 µM (inactive)
CN(C)c1ncnc2c1ncn2C1C=CC(COS(N)(=O)=O)C1 (stereo not given),> 100 µM (inactive),> 100 µM (inactive),> 100 µM (inactive),83.6 µM (inactive),> 100 µM (inactive),66.1 µM (inactive),> 100 µM (inactive),> 100 µM (inactive),> 100 µM (inactive),> 100 µM (inactive),60.7 µM (inactive),> 100 µM (inactive),80.9 µM (inactive),> 100 µM (inactive),> 100 µM (inactive),> 100 µM (inactive),> 100 µM (inactive),> 100 µM (inactive),> 100 µM (inactive),> 100 µM (inactive)
CC(C(O)c1ccccc1)N(C)/N=N/c1nc2c([nH]1)c(=O)n(C)c(=O)n2C (stereo not given),39.6 µM (inactive),> 100 µM (inactive),> 100 µM (inactive),> 100 µM (inactive),39.9 µM (inactive),42.9 µM (inactive),52.6 µM (inactive),> 100 µM (inactive),46.2 µM (inactive),> 100 µM (inactive),95.3 µM (inactive),> 100 µM (inactive),60.8 µM (inactive),50.8 µM (inactive),> 100 µM (inactive),47.2 µM (inactive),75.3 µM (inactive),> 100 µM (inactive),25.2 µM (inactive),> 100 µM (inactive)
COc1ccc(N2C(=O)[C@H]3CC(C)c4c([nH]c5ccccc45)[C@H]3C2=O)cc1 (stereo not given in full),2.92 µM (inactive),5.61 µM (inactive),3.37 µM (inactive),5.64 µM (inactive),3.65 µM (inactive),1.53 µM (inactive),6.38 µM (inactive),8.83 µM (inactive),2.77 µM (inactive),2.4 µM (inactive),1.66 µM (inactive),4.6 µM (inactive),3.8 µM (inactive),5.85 µM (inactive),4.82 µM (inactive),2.49 µM (inactive),0.611 µM (active),1.83 µM (inactive),3.69 µM (inactive),3.15 µM (inactive)
CC1=[N+](C)CCCN1C,> 100 µM (inactive),> 100 µM (inactive),> 100 µM (inactive),> 100 µM (inactive),> 100 µM (inactive),> 100 µM (inactive),> 100 µM (inactive),> 100 µM (inactive),> 100 µM (inactive),> 100 µM (inactive),> 100 µM (inactive),> 100 µM (inactive),> 100 µM (inactive),> 100 µM (inactive),> 100 µM (inactive),> 100 µM (inactive),> 100 µM (inactive),> 100 µM (inactive),> 100 µM (inactive),> 100 µM (inactive)
